Measured values published in patent publication US20240082221A1, “COMPOSITIONS AND METHODS FOR THE IDENTIFICATION OF COMPOUNDS THAT PROTECT AGAINST LIPOFUSCIN CYTOTOXICITY” (priority 2021, published 2024).
“Also recorded” adds a separate entry of the source.

Columns and labels:
[1] = test system: ARPE-19 cells
Description: Cell Viability Assay. […] 1× AlamarBlue solution prepared in OptiMEM was used to replace the media supernatant and the plate's fluorescence was determined at 555 nm excitation/585 nm emission with a SpectraMax M (Molecular Devices, CA, USA), after 1 h. […] The exact timing of appearance of far-red (DRAQ7=plasma membrane leakage) and blue (NUC405=caspase 3 activation) fluorescence signals was critical to differentiate apoptosis and necrosis from secondary events, such as membrane damage and generalized proteolytic activation during the late phase of apoptosis and necrosis, respectively.
Real time monitoring of necrotic and apoptotic cell-death. Cell-death assay to study Lipofuscin's dark toxicity was performed. 90% confluent ARPE-19 or hfRPE were incubated overnight in serum free media supplemented with indicated LB concentration. Viability was assessed at 24 hrs by AlamarBlue®, or microscopy with NUC405/DRAQ7. Real time monitoring of necrotic (red) and apoptotic (blue) cell-death was performed by automated fluorescence microscopy. The exact timing of appearance of far-red (DRAQ7=plasma membrane leakage) and blue (NUC405=caspase 3 activation) fluorescence signals was critical to differentiate apoptosis and necrosis from secondary events, such as membrane damage and generalized proteolytic activation during the late phase of apoptosis and necrosis, respectively.
Chemical inhibitors. Chemical inhibitors used in this study are described in FIG. 12.

[2] = test system: human MLKL; assay: Western blot of Ser358 phospho-MLKL, phosphorylation and polymerization of MLKL; type: cell-based; conditions: absence of light
Description: (§1) Immunoblotting. Total cell lysates were extracted using RIPA lysis buffer (50 mM TrisHCl, Ph 8.0, 150 mM NaCl, 1% NP40, 0.5% Sodium Deoxycholate, 0.1% SDS, protease-phosphatase inhibitor) after the incubation of the specific sample group in a 48 well plate. Sonication or syringing (20 times) was done followed by centrifugation at 12,000×g for 10 mins and the supernatant was collected and stored in −80° C. Proten concentration from homogenates were assessed by Pierce Rapid Gold BCA protein assay kit (ThermoFisher Scientific, cat.no. A53225). Then 30 μg of protein was analyzed by standard SDS-PAGE gel. Samples were mixed 4:1 (v:v) with Nupage loading buffer with or without 8% 0-mercaptoethanol and heated for 10 min at 72° C. SDS-PAGE was done using 4-12% Nupage gel and buffer (Life, NP0335BOX). Next, SDS-PAGE gel was transferred to nitrocellulose membrane (Whatman, PROTAN BA83) overnight at 20V. The following day, 5% milk in TBS was used for 2 h blocking the membrane and then primary antibody was added in TBST (TBS, 0.1% Tween-20) for overnight at 4° C. Next day membranes were washed and incubated for 2 hours at room temperature with HRP conjugated secondary antibody (cat #G21234, Invitrogen) at 1:10,000 dilution. After 3 more washed membranes were probed with enhanced chemiluminescence (ECL) reagent and detected using an X-ray films for chemiluminescence image (GE healthcare, RPN2106). Scanning/imaging and quantitation of the image was done using silverfast 8 application software and Fiji Image J. Antibodies for Western blotting were list in FIG. 10.
For its phosphorylation, MLKL and its kinase need to be recruited into multiprotein complexes, known as necrosomes (FIG. 4O). Necrosomes are not well conserved among species and vary also with the nature of the stimuli that triggers their formation. […] Considering that phosphorylation of human MLKL at Ser358 (pMLKL), is a hallmark triggering event and marker of necroptosis, the Ser358-phosphorylation and polymerization status of MLKL in cells with LF was determined. […] A prerequisite for the assembly of these RIP kinases into necrosomes was their phosphorylation.

[3] = test system: IRE1α; assay: qPCR of spliced XBP1 (XBP1s) as readout of IRE1α activity in ARPE-19; type: cell-based, Human
From the text: RNA isolation and quantitative PCR. Total RNA was extracted from cultured cells or mouse eye RPE layer using the RNeasy Mini kit (QIAGEN). The total RNA was digested with deoxyribonuclease I to prevent amplification of genomic DNA. The total RNA then was reversed transcribed using High-Capacity cDNA Reverse Transcription Kit (ThermoFisher Scientific, cat.no. 4368814) and analyzed gene expression using SYBR Green Master Mix (ThermoFisher Scientific, cat.no. 4472908) in an Applied Biosystems StepOne real time PCR machine. GAPDH was used as a reference gene. […] After genes were amplified by real time PCR, some of the PCR products were separated by 2.5% agarose gel.

[4] = test system: cathepsin D; type: cell-based
From the text: (§2) Next, A2E buildups were imaged using a combination of DIC and fluorescence: A2E appeared as granules with well-defined edges, both within cells or after drying over a coverslip (FIGS. 14D and 14E). Next, the ability of the suspected A2E crystals to damage lysosomal membranes was investigated. A recently developed galectin-3 puncta assay for early detection of lysosomal membrane permeabilization (LMP) was used. Briefly, cytosolic galectin-3 rapidly binds to the glycocalyx in the luminal face of lysosomal membranes as they become leaky, which is easily detectable with anti-galectin high-affinity antibodies. L-Leucyl-L-Leucine methyl ester (LLO) a lysosomotropic peptide that causes LMP was used as positive control of puncta formation (FIG. 14E). […] LMP was confirmed by showing the […] of cathepsin D, as surrogate of lysosomal enzymes. […] Also, very remarkable was the observation that the same unique pattern of protection with arimoclomol and Nec-7 but not Nec-1 was observable for LLO (FIG. 14K), consistent with the idea that necroptosis by A2E is being caused by LMP.

[5] = test system: lysosomal membranes; type: cell-based
From the text: as §2

[6] = Detection of lipid bisretinoids aggregation by filter passage; type: physicochemical
From the text: Detection of lipid bisretinoids aggregation.

[7] = test system: UPR (PERK and ATF6 branches); assay: Western blot of ER-stress markers (p-eIF2a, ATF4, BiP, ATF6) without illumination; type: cell-based, Human
Description: as §1
The causal link between LF accumulation and ER-stress without light assistance was analyzed (FIG. 6A). […] The activation of the IRE1α branch was visualized by qPCR.

[8] = Oxidative damage by H2O2; type: cell-based
[9] = test system: IRE1α; assay: Western blot of light-independent phosphorylation of IRE1α induced by LF; type: cell-based
Description: as §1, with “The following day, 5% milk in TBS was used for 2 h blocking the membrane and then primary antibody was added in TBST (TBS, 0.1% Tween-20) for overnight at 4° C. Next day membranes were washed and incubated for 2 hours at room temperature with HRP conjugated secondary antibody (cat #G21234, Invitrogen) at 1:10,000 dilution.” left out

[10] = test system: pMLKL; assay: Fluorescence microscopy of pMLKL plasma membrane translocation in ARPE-19 monolayers; type: cell-based, Human; conditions: ARPE-19 with A2E or ATRD
From the text: Chronic accumulation of polymeric pMLKL could account for progressive damage in pigmented retinas as they amass LF.

[11] = test system: ARPE-19 cells; assay: Blue-light phototoxicity of A2E-loaded cells, AlamarBlue; type: cell-based, Human; conditions: A2E 5 μM O/N, blue light 10 min, viability after 24 hrs
Description: FIG. 18A: ARPE19 cells were pretreated for 1 hr with the […] of: eIF2a (Salubrinal (SAL), SAL003, or Guanabenz); eIF4 (Briciclib or eFT508); mTOR (Rapamycin, Torin-1); or the unspecific protein translation inhibitor (Cyclohexamide CHX) and then incubated with lethal doses of A2E (25 μM) for an additional 24 hrs in the presence of these drugs. Viability was assessed with AlamarBlue®. […] Viability was assessed with AlamarBlue®. […] ARPE-19 cells were incubated O/N with a non-toxic amount of A2E (5 μM) to allow its incorporation into lysosomes and after changing the media for PBS and irradiating for 10 min with blue light cells were maintained for an additional 24 hrs in Optimem before evaluating viability, using AlamarBlue®. FIG. 18D: Fluorescence microscopy of cells incubated with lethal amounts of A2E (25 μM) in Optimem for 24 hrs. Green fluorescence corresponds to A2E deposits. Nuclei are stained with the DNA dye, Hoechst, in viable cells (blue) and with Hoechst and DRAQ7 (a DNA dye that only enter cells with disrupted membranes) in dead cells (purple).
Blue light treatment. ARPE19 cells were grown at 70% confluence and were treated with or without 20 μM A2E in culture medium for 24 h. Then, HBSS replaced the cell culture medium before blue light treatment. ARPE19 cells with or without A2E intake, were illuminated by 460+20 nm wavelength light for 20 min.

## CC(C=CC1=C(C)CCCC1(C)C)=CC=CC(C)=Cc1cc(C=CC=C(C)C=CC2=C(C)CCCC2(C)C)cc[n+]1CCO [A2E, N-retinylidene-N-retinylethanolamine]
[1]; light-independent
  cell death in ARPE19 cells exposed to the substance: Dose dependent cell death
[2]
  induction of phosphorylation and polymerization of MLKL: dose-dependent phosphorylation and polymerization of MLKL
[3]; in the dark, qPCR
  induction of XBP1s: dose and time-dependent inductions of XBP1s
[4]
  cathepsin-D activity: caused reduction in cathepsin-D activity
[5]
  lysosomal membrane permeabilization (galectin-3 puncta): clearly caused puncta staining and therefore LMP
[6]; 3 μm cut-off, same material
  passage through 3 μm filter in aqueous milieu: did cross membranes with 3 μm cut-off
[6]; 450 nm filter pores
  passage through 0.45 μm filter in aqueous milieu: could not move across 450 nm filter pores
[7]; 6 hrs treatment, 20 μM A2E
  cleavage of ATF6: significant cleavage
[7]; without light
  Ser51 phosphorylation of eIF2a: strongest Ser51 phosphorylation of eIF2a

## CC(=O)N[C@@H](CS)C(=O)O [NAC, N-acetyl cysteine]
[8]
  prevention of oxidative damage by H2O2: effectively prevented oxidative damage by H2O2
[9]
  light-independent phosphorylation of IRE1α induced by LF in presence of antioxidant: proceeded unaffected

## O=C(/C=C/c1ccccc1)NC(NC(=S)Nc1cccc2cccnc12)C(Cl)(Cl)Cl (stereo not shown) [Salubrinal]
[1]; ARPE19 pretreated 1 hr, then A2E 25 μM for 24 hrs in presence of drug, AlamarBlue
  protection against lethal doses of A2E, viability: protected against lipofuscin
[1]; with PERK inhibitor GSK2606414 or ATF4-shRNA, A2E 25 μM 24 hrs
  requirement of PERK / ATF4 for protection against lipofuscin: needs PERK but not ATF4 to exert protection against lipofuscin
[10]
  effect on LF-induced pMLKL plasma membrane localization: abrogated
[3]; ARPE-19, qPCR, listed as SAL
  effect on LF-induced XBP1 splicing (XBP1s, IRE1α activity): inhibits IRE1α signaling; also recorded: abrogated
[11]
  protection against phototoxic decomposition of lipid bisretinoids: does not protect against the phototoxic decomposition of lipid bisretinoids
